According to US20110118350A1, “COMPOSITION FOR PREVENTING CARDIOVASCULAR EVENT IN HIGH-RISK PATIENT” (MOCHIDA PHARMACEUTICAL CO., LTD., priority 2008, published 2011):

Assay: Incidence of cardiovascular events for 5 years from the start of administration (DELIS partial analysis)
Format: in vivo, human
Details: for Ratio of incidence reduction (%): EPA-E vs control group; for Incidence (%) of cardiovascular events / Number of cardiovascular events: 5 years
From the text: This trial corresponds to a partial analysis of the results obtained in DELIS (Japan EPA Lipid Intervention Study) which is a large scale clinical trial of high purity EPA preparation which was presented in the American College of Cardiology 2005 Annual Meeting (for general information on DELIS, see Lancet, vol. 369, pp. 1090-1098 (2007)). More specifically, of 18,645 subject patients of the DELIS trial (EPA group (9,326 cases) and control group (9,319 cases)), 15534 cases (sum of the control group and EPA group) were analyzed for the composition of plasma fatty acids and divided based on the average of the plasma OA/SA ratio during the whole observation period into three groups (i.e., a group having an OA/SA ratio of less than 2.6, a group having an OA/SA ratio of at least 2.6 but less than 3.0, and a group having an OA/SA ratio of at least 3.0) so that the three groups were approximately equal in number, and the groups were compared for the incidence of cardiovascular events for 5 years from the start of administration. The EPA group was orally administered with Epadel (EPA-E available from Mochida Pharmaceutical Co., Ltd.) typically at an adult dose of 600 mg per administration and 3 times a day immediately after the meal. However, in the case of abnormal serum TG, the dose could be increased to 900 mg per administration and 3 times a day depending on the degree of abnormality. In both groups, pravastatin sodium (Mevalotin™ tablets and fine granules, Daiichi Sankyo Co., Ltd.), simvastatin (Lipovas™ tablets, Banyu Pharmaceutical Co., Ltd.), or atorvastatin calcium hydrate (Lipitor™ tablets, Astellas Pharma Inc. and Pfizer Inc.) was used for the base drug, and these drugs were orally administered according to the prescribed dosage regimen. This trial corresponds to a partial analysis of the results obtained in DELIS as in Example 1. More specifically, primary prevention cases combined with secondary prevention cases, only primary prevention cases, and only secondary prevention cases were respectively divided into four groups based on the plasma OA level or the plasma SA level at the start of administration so that the four groups were approximately equal in number. The groups were compared for the incidence of cardiovascular events for 5 years from the start of administration.

[1] = primary + secondary prevention cases, Total (oleic acid grouping)
[2] = primary + secondary prevention cases, Total (stearic acid grouping)
[3] = primary + secondary prevention cases, oleic acid at start 22.1< mol %
[4] = primary + secondary prevention cases, oleic acid at start >18.2-20.1 mol %
[5] = primary + secondary prevention cases, oleic acid at start >20.1-22.1 mol %
[6] = primary + secondary prevention cases, oleic acid at start −18.2 mol %
[7] = primary + secondary prevention cases, stearic acid at start 7.35< mol %
[8] = primary + secondary prevention cases, stearic acid at start >6.46-6.89 mol %
[9] = primary + secondary prevention cases, stearic acid at start >6.89-7.35 mol %
[10] = primary + secondary prevention cases, stearic acid at start −6.46 mol %
[11] = primary prevention cases, Total (oleic acid grouping)
[12] = primary prevention cases, Total (stearic acid grouping)
[13] = primary prevention cases, oleic acid at start 21.9< mol %
[14] = primary prevention cases, oleic acid at start >18.1-19.9 mol %
[15] = primary prevention cases, oleic acid at start >19.9-21.9 mol %
[16] = primary prevention cases, oleic acid at start −18.1 mol %
[17] = primary prevention cases, stearic acid at start 7.33< mol %
[18] = primary prevention cases, stearic acid at start >6.46-6.89 mol %
[19] = primary prevention cases, stearic acid at start >6.89-7.33 mol %
[20] = primary prevention cases, stearic acid at start −6.46 mol %
[21] = secondary prevention cases, Total (oleic acid grouping)
[22] = secondary prevention cases, Total (stearic acid grouping)
[23] = secondary prevention cases, oleic acid at start 22.1< mol %
[24] = secondary prevention cases, oleic acid at start >18.2-20.1 mol %
[25] = secondary prevention cases, oleic acid at start >20.1-22.1 mol %
[26] = secondary prevention cases, oleic acid at start −18.2 mol %
[27] = secondary prevention cases, stearic acid at start 7.38< mol %
[28] = secondary prevention cases, stearic acid at start >6.46-6.90 mol %
[29] = secondary prevention cases, stearic acid at start >6.90-7.38 mol %
[30] = secondary prevention cases, stearic acid at start −6.46 mol %

CC/C=C\C/C=C\C/C=C\C/C=C\C/C=C\CCCC(=O)OCC [EPA-E, ethyl icosapentate]
Ratio of incidence reduction (%) [1]: 13.2%
Ratio of incidence reduction (%) [2]: 13.2%
Ratio of incidence reduction (%) [3]: 30.3%
Ratio of incidence reduction (%) [4]: 14.6%
Ratio of incidence reduction (%) [5]: −2.0%
Ratio of incidence reduction (%) [6]: −5.3%
Ratio of incidence reduction (%) [7]: 39.5%
Ratio of incidence reduction (%) [8]: −13.9%
Ratio of incidence reduction (%) [9]: 26.6%
Ratio of incidence reduction (%) [10]: 1.8%
Ratio of incidence reduction (%) [11]: 11.1%
Ratio of incidence reduction (%) [12]: 11.1%
Ratio of incidence reduction (%) [13]: 30.4%
Ratio of incidence reduction (%) [14]: 26.1%
Ratio of incidence reduction (%) [15]: −20.6%
Ratio of incidence reduction (%) [16]: −12.2%
Ratio of incidence reduction (%) [17]: 17.0%
Ratio of incidence reduction (%) [18]: −17.3%
Ratio of incidence reduction (%) [19]: 19.5%
Ratio of incidence reduction (%) [20]: 22.0%
Ratio of incidence reduction (%) [21]: 15.5%
Ratio of incidence reduction (%) [22]: 15.5%
Ratio of incidence reduction (%) [23]: 40.8%
Ratio of incidence reduction (%) [24]: −3.4%
Ratio of incidence reduction (%) [25]: 8.1%
Ratio of incidence reduction (%) [26]: 3.0%
Ratio of incidence reduction (%) [27]: 65.2%
Ratio of incidence reduction (%) [28]: −19.9%
Ratio of incidence reduction (%) [29]: 38.7%
Ratio of incidence reduction (%) [30]: −26.0%
effect on incidence and/or rate of recurrence of cardiovascular events (patients with an OA level exceeding 22.1 mol % or an SA level exceeding 7.38 mol %): reduced incidence and/or rate of recurrence of cardiovascular events
Incidence (%) of cardiovascular events [1]: 3.8%
Number of cardiovascular events [1]: 266
Incidence (%) of cardiovascular events [2]: 3.8%
Number of cardiovascular events [2]: 266
Incidence (%) of cardiovascular events [3]: 4.7%
Number of cardiovascular events [3]: 77
Incidence (%) of cardiovascular events [4]: 3.1%
Number of cardiovascular events [4]: 55
Incidence (%) of cardiovascular events [5]: 4.4%
Number of cardiovascular events [5]: 76
Incidence (%) of cardiovascular events [6]: 3.3%
Number of cardiovascular events [6]: 58
Incidence (%) of cardiovascular events [7]: 2.5%
Number of cardiovascular events [7]: 44
Incidence (%) of cardiovascular events [8]: 4.9%
Number of cardiovascular events [8]: 81
Incidence (%) of cardiovascular events [9]: 3.2%
Number of cardiovascular events [9]: 56
Incidence (%) of cardiovascular events [10]: 4.8%
Number of cardiovascular events [10]: 85
Incidence (%) of cardiovascular events [11]: 2.5%
Number of cardiovascular events [11]: 140
Incidence (%) of cardiovascular events [12]: 2.5%
Number of cardiovascular events [12]: 140
Incidence (%) of cardiovascular events [13]: 2.8%
Number of cardiovascular events [13]: 40
Incidence (%) of cardiovascular events [14]: 1.9%
Number of cardiovascular events [14]: 27
Incidence (%) of cardiovascular events [15]: 3.2%
Number of cardiovascular events [15]: 46
Incidence (%) of cardiovascular events [16]: 1.8%
Number of cardiovascular events [16]: 27
Incidence (%) of cardiovascular events [17]: 1.9%
Number of cardiovascular events [17]: 27
Incidence (%) of cardiovascular events [18]: 3.1%
Number of cardiovascular events [18]: 43
Incidence (%) of cardiovascular events [19]: 2.4%
Number of cardiovascular events [19]: 34
Incidence (%) of cardiovascular events [20]: 2.4%
Number of cardiovascular events [20]: 36
Incidence (%) of cardiovascular events [21]: 10.2%
Number of cardiovascular events [21]: 126
Incidence (%) of cardiovascular events [22]: 10.2%
Number of cardiovascular events [22]: 126
Incidence (%) of cardiovascular events [23]: 9.5%
Number of cardiovascular events [23]: 27
Incidence (%) of cardiovascular events [24]: 8.7%
Number of cardiovascular events [24]: 28
Incidence (%) of cardiovascular events [25]: 11.5%
Number of cardiovascular events [25]: 37
Incidence (%) of cardiovascular events [26]: 11.2%
Number of cardiovascular events [26]: 34
Incidence (%) of cardiovascular events [27]: 4.3%
Number of cardiovascular events [27]: 14
Incidence (%) of cardiovascular events [28]: 14.2%
Number of cardiovascular events [28]: 41
Incidence (%) of cardiovascular events [29]: 6.9%
Number of cardiovascular events [29]: 22
Incidence (%) of cardiovascular events [30]: 16.4%
Number of cardiovascular events [30]: 49
